Experimental findings from patent US9708278B2, “Substituted 4-benzyl-3,4-dihydro-2H-benzo[B][1,4]oxazine-2-carboxamide analogs as positive allosteric modulators of muscarinic acetycholine receptor M1” (Vanderbilt University, priority 2013, dated 2017) are described below.

The structures appear in SMILES notation.

One assay deals with T1, mAChR M1 (UniProt P08482).
T1 sequence (P08482 1-460): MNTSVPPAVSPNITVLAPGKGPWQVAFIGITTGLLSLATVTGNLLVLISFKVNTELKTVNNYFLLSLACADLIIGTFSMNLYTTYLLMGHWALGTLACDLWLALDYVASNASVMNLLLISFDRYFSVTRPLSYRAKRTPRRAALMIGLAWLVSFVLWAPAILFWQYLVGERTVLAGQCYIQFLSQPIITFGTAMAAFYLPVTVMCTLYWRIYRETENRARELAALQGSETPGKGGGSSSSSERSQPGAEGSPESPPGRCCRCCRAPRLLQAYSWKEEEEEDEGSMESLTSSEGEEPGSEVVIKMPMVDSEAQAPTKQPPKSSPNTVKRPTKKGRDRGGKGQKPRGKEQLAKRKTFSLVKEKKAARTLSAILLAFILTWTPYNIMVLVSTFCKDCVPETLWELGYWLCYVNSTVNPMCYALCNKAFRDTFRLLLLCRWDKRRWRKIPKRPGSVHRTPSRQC
As to the kind of experiment: mAChR M1 cell-based functional assay (calcium mobilization, PAM mode). The settings on record: positive allosteric modulator activity: concentration-dependent increase in the EC20 acetylcholine response; calcium flux in CHO-K1 cells stably expressing mAChR M1. The source says:
The calcium mobilization assay was also used to determine “efficacy”.
N-Substituted 3,4-dihydro-benzo[b][1,4]oxazine-2-carboxamide analogs were synthesized as described above. […] The compound number corresponds to the compound numbers used in Table I.
On to `O=C(Nc1ccccc1F)C1CN(Cc2ccc(-n3cccn3)cc2)c2ccccc2O1` (stereo not drawn) [Compound B55], for which the EC50 was not below 10 µM.

Still in this assay, the particulars now being: positive allosteric modulator activity: concentration-dependent increase in the EC20 acetylcholine response; calcium flux in CHO-K1 cells stably expressing mAChR M1; read-out: EC50.
In the case of `COc1ccc(CN2C[C@H](C(=O)N[C@H]3CCCC[C@@H]3O)Oc3ccccc32)cc1` (single isomer, unassigned) [Compound B9], the EC50 amounted to 7.75 µM.

In the case of `COc1ccc(CN2C[C@@H](C(=O)N[C@H]3CCCC[C@@H]3O)Oc3ccccc32)cc1` (single isomer, unassigned) [Compound B10], the EC50 is not below 10 µM.

As to `CC(C)C[C@@H](CO)NC(=O)[C@@H]1CN(Cc2ccc(-n3cccn3)cc2)c2ccccc2O1` (single isomer, unassigned) [Compound B19], the EC50 came out at 3.69 µM.

With `CC(C)C[C@@H](CO)NC(=O)[C@H]1CN(Cc2ccc(-n3cccn3)cc2)c2ccccc2O1` (single isomer, unassigned) [Compound B20], the concentration for a half-maximal effect (EC50) was found to be 2.07 µM.

As for `O=C(N[C@H]1CCCC[C@@H]1O)C1CN(Cc2ccc(-n3cccn3)cc2)c2ccccc2O1` (single isomer, unassigned) [Compound B29], the EC50 was determined as 0.573 µM.

Regarding `O=C(N[C@H]1CCCC[C@@H]1O)C1CN(Cc2ccc(-n3cccn3)cc2)c2ccccc2O1` (single isomer, unassigned) [Compound B41], the EC50 amounted to 0.199 µM.

On to `O=C(N[C@H]1CCCC[C@@H]1O)C1CN(Cc2ccc(-n3cccn3)cc2)c2ccccc2O1` (stereo partly drawn) [Compound B1, 4-(4-(1H-pyrazol-1-yl)benzyl)-N-((1S,2S)-2-hydroxycyclohexyl)-3,4-dihydro-2H-benzo[b][1,4]oxazine-2-carboxamide], for which the EC50 stood at 0.302 µM.

Consider `O=C(Nc1ncccc1O)C1CN(Cc2ccc(-n3cccn3)cc2)c2ccccc2O1` (stereo not drawn) [Compound B2, 4-(4-(1H-pyrazol-1-yl)benzyl)-N-(3-hydroxypyridin-2-yl)-3,4-dihydro-2H-benzo[b][1,4]oxazine-2-carboxamide], for which the EC50 stood at 0.543 µM.

For the compound `O=C(NC1COC1)C1CN(Cc2ccc(-n3cccn3)cc2)c2ccccc2O1` (stereo not drawn) [Compound B3], the EC50 is not below 10 µM.

Turning to `O=C(N[C@H]1CCCC[C@@H]1O)C1CN(Cc2c(F)cc(Br)cc2F)c2ccccc2O1` (stereo partly drawn) [Compound B4, 4-(4-bromo-2,6-difluorobenzyl)-N-((1S,2S)-2-hydroxycyclohexyl)-3,4-dihydro-2H-benzo[b][1,4]oxazine-2-carboxamide], the EC50 was more than 30 µM.

For `COc1ccc(CN2CC(C(=O)N[C@H]3CCCC[C@@H]3O)Oc3ccccc32)cc1` (stereo partly drawn) [Compound B5], the EC50 was not below 10 µM.

On to `Cn1cc2c(-c3cc(F)c(CN4CC(C(=O)N[C@H]5CCCC[C@@H]5O)Oc5ccccc54)c(F)c3)cccc2n1` (stereo partly drawn) [Compound B6, 4-(2,6-difluoro-4-(2-methyl-2H-indazol-4-yl)benzyl)-N-((1S,2S)-2-hydroxycyclohexyl)-3,4-dihydro-2H-benzo[b][1,4]oxazine-2-carboxamide], for which the EC50 was not below 10 µM.

For the compound `Cn1cc(-c2ccc(CN3CC(C(=O)N[C@H]4CCCC[C@@H]4O)Oc4ccccc43)cc2)cn1` (stereo partly drawn) [Compound B7], the EC50 is more than 30 µM.

For `O=C(N[C@H]1CCCC[C@@H]1O)C1CN(Cc2ccc(Cl)nc2)c2ccccc2O1` (stereo partly drawn) [Compound B8], the EC50 came out at 4.21 µM.

Turning to `CC(C)CNC(=O)C1CN(Cc2ccc(-n3cccn3)cc2)c2ccccc2O1` (stereo not drawn) [Compound B11], the EC50 came to 3.56 µM.

Turning to `O=C(NCc1ccccn1)C1CN(Cc2ccc(-n3cccn3)cc2)c2ccccc2O1` (stereo not drawn) [Compound B12], the EC50 was found to be 4.82 µM.

As to `COC(=O)CNC(=O)C1CN(Cc2ccc(-n3cccn3)cc2)c2ccccc2O1` (stereo not drawn) [Compound B13], the 50% effective concentration (EC50) amounted to 1.44 µM.

Consider `O=C(Nc1ccccc1O)C1CN(Cc2ccc(-n3cccn3)cc2)c2ccccc2O1` (stereo not drawn) [Compound B14], for which the EC50 was not below 10 µM.

Regarding `O=C(Nc1ccccn1)C1CN(Cc2ccc(-n3cccn3)cc2)c2ccccc2O1` (stereo not drawn) [Compound B15], the EC50 is not below 10 µM.

Regarding `CC(C)(CO)NC(=O)C1CN(Cc2ccc(-n3cccn3)cc2)c2ccccc2O1` (stereo not drawn) [Compound B16], the EC50 is more than 30 µM.

For `O=C(NC1CC1)C1CN(Cc2ccc(-n3cccn3)cc2)c2ccccc2O1` (stereo not drawn) [Compound B17], the EC50 was not below 10 µM.

As to `O=C(NC1CCCCC1)C1CN(Cc2ccc(-n3cccn3)cc2)c2ccccc2O1` (stereo not drawn) [Compound B18], the EC50 is not below 10 µM.

For the compound `CNC(=O)C1CN(Cc2ccc(-n3cccn3)cc2)c2ccccc2O1` (stereo not drawn) [Compound B21], the EC50 came to 5.36 µM.

Take `CC(C)NC(=O)C1CN(Cc2ccc(-n3cccn3)cc2)c2ccccc2O1` (stereo not drawn) [Compound B22]: the EC50 is not below 10 µM.

For `O=C(NC1CCOC1)C1CN(Cc2ccc(-n3cccn3)cc2)c2ccccc2O1` (stereo not drawn) [Compound B23], the EC50 was not below 10 µM.

On to `O=C(NCCCN1CCOCC1)C1CN(Cc2ccc(-n3cccn3)cc2)c2ccccc2O1` (stereo not drawn) [Compound B24], for which the EC50 was not below 10 µM.

On to `COc1ccc(OCCNC(=O)C2CN(Cc3ccc(-n4cccn4)cc3)c3ccccc3O2)cc1` (stereo not drawn) [Compound B25], for which the EC50 was more than 30 µM.

For the compound `O=C(NCC(F)(F)F)C1CN(Cc2ccc(-n3cccn3)cc2)c2ccccc2O1` (stereo not drawn) [Compound B26], the EC50 was more than 30 µM.

Take `O=C(NC1CCC1)C1CN(Cc2ccc(-n3cccn3)cc2)c2ccccc2O1` (stereo not drawn) [Compound B27]: the EC50 was 7.66 µM.

In the case of `O=C(NC1CCCC1)C1CN(Cc2ccc(-n3cccn3)cc2)c2ccccc2O1` (stereo not drawn) [Compound B28], the concentration for a half-maximal effect (EC50) was not below 10 µM.

For `O=C(NC1CCOCC1)C1CN(Cc2ccc(-n3cccn3)cc2)c2ccccc2O1` (stereo not drawn) [Compound B30], the EC50 is 4.43 µM.

In the case of `O=C(Nc1ccccc1)C1CN(Cc2ccc(-n3cccn3)cc2)c2ccccc2O1` (stereo not drawn) [Compound B31], the EC50 is more than 30 µM.

For `NC(=O)C1CN(Cc2ccc(-n3cccn3)cc2)c2ccccc2O1` (stereo not drawn) [Compound B32], the EC50 came to 3.3 µM.

Turning to `O=C(NCCO)C1CN(Cc2ccc(-n3cccn3)cc2)c2ccccc2O1` (stereo not drawn) [Compound B33], the EC50 is 6.54 µM.

In the case of `CC1(NC(=O)C2CN(Cc3ccc(-n4cccn4)cc3)c3ccccc3O2)COC1` (stereo not drawn) [Compound B34], the EC50 is more than 30 µM.

As to `C[C@@H](CO)NC(=O)C1CN(Cc2ccc(-n3cccn3)cc2)c2ccccc2O1` (stereo partly drawn) [Compound B35], the EC50 came out at 4.66 µM.

As to `CC(C)(O)CNC(=O)C1CN(Cc2ccc(-n3cccn3)cc2)c2ccccc2O1` (stereo not drawn) [Compound B36], the EC50 is 3.8 µM.

With `O=C(NC1CCCOC1)C1CN(Cc2ccc(-n3cccn3)cc2)c2ccccc2O1` (stereo not drawn) [Compound B37], the EC50 was not below 10 µM.

`O=C(NCCOc1ccccc1F)C1CN(Cc2ccc(-n3cccn3)cc2)c2ccccc2O1` (stereo not drawn) [Compound B38]: the EC50 is more than 30 µM.

In the case of `COc1ccccc1OCCNC(=O)C1CN(Cc2ccc(-n3cccn3)cc2)c2ccccc2O1` (stereo not drawn) [Compound B39], the EC50 is more than 30 µM.

`O=C(NCCOc1ccc(F)cc1)C1CN(Cc2ccc(-n3cccn3)cc2)c2ccccc2O1` (stereo not drawn) [Compound B40]: the EC50 was more than 30 µM.

In the case of `O=C(N[C@H]1CCCC[C@@H]1O)C1CN(Cc2ccc(C(F)(F)F)nc2)c2ccccc2O1` (stereo partly drawn) [Compound B42], the EC50 worked out at 4.7 µM.

Regarding `COCC(C)NC(=O)C1CN(Cc2ccc(-n3cccn3)cc2)c2ccccc2O1` (stereo not drawn) [Compound B43], the EC50 is not below 10 µM.

As for `O=C(N[C@@H](CO)[C@H](O)c1ccccc1)C1CN(Cc2ccc(-n3cccn3)cc2)c2ccccc2O1` (stereo partly drawn) [Compound B44], the EC50 is not below 10 µM.

`O=C(Nc1cccc2cn[nH]c12)C1CN(Cc2ccc(-n3cccn3)cc2)c2ccccc2O1` (stereo not drawn) [Compound B45]: the EC50 came out at 7.38 µM.

Regarding `O=C(NCC(O)C(F)(F)F)C1CN(Cc2ccc(-n3cccn3)cc2)c2ccccc2O1` (stereo not drawn) [Compound B46], the EC50 was determined as 2.28 µM.

For `O=C(Nc1ccn[nH]1)C1CN(Cc2ccc(-n3cccn3)cc2)c2ccccc2O1` (stereo not drawn) [Compound B47], the EC50 was more than 30 µM.

On to `COc1cccnc1NC(=O)C1CN(Cc2ccc(-n3cccn3)cc2)c2ccccc2O1` (stereo not drawn) [Compound B48], for which the EC50 stood at 2.4 µM.

With `O=C(Nc1ncc(F)cc1F)C1CN(Cc2ccc(-n3cccn3)cc2)c2ccccc2O1` (stereo not drawn) [Compound B49], the EC50 is not below 10 µM.

As to `O=C(Nc1ncccc1F)C1CN(Cc2ccc(-n3cccn3)cc2)c2ccccc2O1` (stereo not drawn) [Compound B50], the 50% effective concentration (EC50) was 2.57 µM.

With `COCCNC(=O)C1CN(Cc2ccc(-n3cccn3)cc2)c2ccccc2O1` (stereo not drawn) [Compound B51], the EC50 was determined as 7.65 µM.

For the compound `O=C(NCC(F)F)C1CN(Cc2ccc(-n3cccn3)cc2)c2ccccc2O1` (stereo not drawn) [Compound B52], the EC50 was not below 10 µM.

In the case of `Cc1ccc(NC(=O)C2CN(Cc3ccc(-n4cccn4)cc3)c3ccccc3O2)c(O)c1` (stereo not drawn) [Compound B53], the EC50 is more than 30 µM.

Regarding `O=C(N[C@H]1CCC[C@@H]1O)C1CN(Cc2ccc(-n3cccn3)cc2)c2ccccc2O1` (stereo partly drawn) [Compound B54], the 50% effective concentration (EC50) worked out at 1.15 µM.

For the compound `Cc1ccccc1NC(=O)C1CN(Cc2ccc(-n3cccn3)cc2)c2ccccc2O1` (stereo not drawn) [Compound B56], the EC50 was not below 10 µM.

Consider `O=C(N[C@H]1CCCC[C@@H]1O)C1CN(Cc2ccc(C(F)(F)F)nc2)c2cccc(F)c2O1` (stereo partly drawn) [Compound B57, 8-fluoro-N-((1S,2S)-2-hydroxycyclohexyl)-4-((6-(trifluoromethyl)pyridin-3-yl)methyl)-3,4-dihydro-2H-benzo[b][1,4]oxazine-2-carboxamide], for which the EC50 is 3.6 µM.
